We go through three compounds from US20260053782A1, “TREATMENT REGIMENS FOR PARKINSON'S DISEASE” (BIAL - PORTELA & CA, S.A., priority 2022, published 2026).

Data set [1] has as its system patients suffering from early idiopathic Parkinson's disease. The settings on record: addition of entacapone vs levodopa-only therapy; levodopa-naïve patients; cited from earlier work.
Data set [2] is described as follows: Levodopa pharmacokinetics over 12 hours after 2 weeks of each LD/CD regimen with or without opicapone 50 mg (Phase II open-label trial). The note with it: human, in vivo. The method, then:
The invention was discovered through a Phase IL, randomized, open-label trial evaluating the effect of opicapone (50 mg once-daily) on L-DOPA pharmacokinetics in Parkinson's disease patients with end-of-dose motor fluctuations taking different levodopa/carbidopa (LD/CD) sparing regimens (EudraCT number: 2020-003139-12).
Following screening, all subjects received an LD/CD dose and regimen of 100/25 mg QD5 (giving a total daily dose of 500/125 mg) fixed every 3 hours (from 8:00 to 20:00) for 14±2 days. This is the reference regimen. […]
The pharmacokinetic parameters assessed for each of the regimens included maximum observed plasma concentration (Cmax), time to achieve peak plasma levels (tmax), minimum observed plasma concentration (Cmin), plasma elimination half-life (t1/2), area under the curve (AUC) and fluctuation index (FI, as an expression of peak-to-trough fluctuation, Cmax and Cmin relative to average concentration Cavg).

Data set [3] has as its system Parkinson's disease patients with end-of-dose motor fluctuations. As to the kind of experiment: 12-hour patient ON/OFF monitoring registered by investigators on pharmacokinetics days. Format: in vivo, human. The settings on record: addition of opicapone; overall summary. From the text:
Subjects were aged ≥30 years with a clinical diagnosis of idiopathic Parkinson's disease according to the United Kingdom Parkinson's Disease Society Brain Bank Clinical Diagnostic Criteria with disease severity stage 1-3 (according to modified Hoehn & Yahr staging) at ON and with end-of-dose motor fluctuations and signs of “wearing off”. Subjects were receiving treatment with levodopa/DDCI for at least 1 year with clear clinical improvement.
Clinical and safety/tolerability outcomes were also assessed as exploratory secondary outcomes. Clinical outcomes included ON and OFF-time assessed using patient-rated tools. The timing of ON and OFF state was registered (in real time) by the investigators during the matching 12-hour pharmacokinetic evaluation, as such applied on the pharmacokinetics days only), and patients also completed 24-hour Hauser ON/OFF diary charts (in 30 minute blocks) during the three days before each pharmacokinetic visit. […] In addition, the patient global impression of change (PGI-C) of opicapone 50 mg was evaluated at the end of the LD/CD 400/100 mg plus opicapone treatment, compared to before the start of the opicapone treatment. […]
All study assessments were evaluated for each LD/CD 400/100 mg plus 50 mg opicapone treatment regimen, compared to the LD/CD 500/125 mg without opicapone regimen.

The conditions of data set [4]: cited from earlier work.

Turning to `CCN(CC)C(=O)/C(C#N)=C/c1cc(O)c(O)c([N+](=O)[O-])c1` [entacapone], the frequency of dyskinesia result in data set [1] is “increased frequency of dyskinesia”.
For the compound `Cc1c(Cl)c(C)[n+]([O-])c(Cl)c1-c1noc(-c2cc(O)c(O)c([N+](=O)[O-])c2)n1` [opicapone], in data set [2], the “difference in levodopa tmax” value is “no impact” and the “increase in levodopa t1/2” value is “at least doubled”. Moreover, in data set [3], the OFF time result is “reduced OFF time” and the ON time result is given as “increased ON time”.
With `N[C@@H](Cc1ccc(O)c(O)c1)C(=O)O` [levodopa, L-3,4-dihydroxyphenylalanine], in data set [4], the “half-life of oral levodopa” value is 1 to 1.5 h.
